Test results: a melting point compilation (Tetko et al.)

Compound	melting point
CC(C)CN1C(=O)N2CCc3ccccc3C2(c2ccc(Cl)cc2)C1=O (centres undefined)	120 to 121 °C
Cc1cc(N=C2c3ccccc3CN2c2cc(C)on2)no1	191 °C
Nc1c([N+](=O)[O-])cc(Cl)cc1[N+](=O)[O-]	147 °C
O=C(Oc1ccccc1)c1cc2ccccc2cc1O	128 to 133 °C
NC1CC1	-10 °C
CCN(Cc1c(F)cccc1Cl)c1c([N+](=O)[O-])cc(C(F)(F)F)cc1[N+](=O)[O-]	102 °C
N#Cc1cccnc1Sc1ccccc1	105 to 107 °C
Nc1ccc2cc(S(=O)(=O)O)cc(S(=O)(=O)O)c2c1	300 °C
CCCCCCCC(=O)Oc1c(I)cc(C#N)cc1I	59.5 °C
CCOC(=O)C(C#N)=C1Oc2ccccc2N1C	135 to 137 °C
c1cc2occc2c(N2CCNCC2)n1	58 to 60 °C
COc1ccc2c(=O)c(C)c(-c3ccccc3)oc2c1CN(C)C	110 °C
CCCCCc1ccc(OC(=O)c2ccc(OC(=O)c3ccc(CCCCC)cc3)cc2Cl)cc1	39 to 122 °C
COC(=O)c1ccc(Cl)c(Cl)c1	45 °C
C=CCN(CC=C)C(=O)C(Cl)Cl	5.5 °C
Cc1c(Cl)cccc1C#N	21.5 °C
N#Cc1ncccc1N1CCCCC1	67 to 69 °C
CCOC(=O)c1cnc2cc(OCC(C)C)c(OCC(C)C)cc2c1O	290 °C
Nc1c(F)cc(F)cc1Cl	30 °C
CCCCCCCCCCC(=O)CCCCC	37 °C
Cc1noc(-c2ccc(CO)cc2)n1	102 to 104 °C
CC(C)C[C@H](NC(=O)OCC1c2ccccc2-c2ccccc21)C(=O)O	153 to 157 °C
O=S(=O)(Cl)c1ccc(Br)cc1Cl	79 °C

Compound	melting point
C=C1/C(=N/Nc2cc(Cl)c(Cl)cc2Cl)C(=O)N(C)C(=O)N1C	242 °C
O=[N+]([O-])c1ccccc1-c1onc(-c2ccccc2)c1-c1ccccc1	127 °C
CN(C)CCCN1c2ccccc2Sc2ccccc21	33 °C
CCOC(=O)C(=O)c1ccc(Br)s1	70 to 71 °C
Cc1ccc(C(=S)N2CCCCC2)cc1	93 °C
COc1ccc(C(=O)c2cccc(C)c2)cc1OC	93 °C
CCN(CCO)c1ccccc1	37 °C
CC(=O)OC1C2COC(O2)C(OC(C)=O)C1OC(C)=O (centres undefined)	110 °C
Fc1cccc(F)c1	-59 °C
CC1=C(C(=O)OCc2ccccc2)C(c2ccccc2)NC(=S)N1 (centres undefined)	175 °C
Cc1n[nH]c(C)c1Oc1ccc(Cl)cc1	139 to 141 °C
CC(/C=C(C)/C=C/c1ccccc1)=NNS(=O)(=O)c1ccc(C)cc1	138 to 142 °C
O=C(O)Cc1cccc(I)c1	130 °C
COc1ccc2c(CBr)cc(=O)oc2c1	212 to 217 °C
N#Cc1ccc(Cn2ccnc2)cc1	103 to 104 °C
O=c1c(Cl)c(SCc2ccccc2)cnn1-c1ccccc1	138 to 140 °C
CC12CCC(O)CC1CCC1C2CCC2(C)C1CCC2(C)O (centres undefined)	164 °C
Clc1cc(I)ccn1	43 °C
CN(C)CCOc1ccc(N)cc1	55 to 57 °C
c1ccc(-c2c(-c3[nH]c4ccccc4c3-c3ccccc3)[nH]c3ccccc23)cc1	227 °C
CCCCCc1cc(O)c2c(c1)OC(C)(C)C1CCC(C)=CC21 (centres undefined)	200 °C
O=S(=O)(Cl)c1occc1C1OCCO1	34 to 39 °C
CC1(C)C2CCC1(C)C(C(=O)O)C2CC(O)c1ccccc1 (centres undefined)	119 °C

Compound	melting point
CC(=O)Nc1ccccc1CCN(CCc1ccccc1NC(C)=O)C(C)=O	188 to 190 °C
Cn1c(/C(C#N)=N/Nc2cccc(Cl)c2)nc2ccccc21	165 °C
OC(c1ccccc1)(c1ccccc1)[C@@H](c1ccccc1)N1CCCCC1	158 °C
Cc1ccc2c(c1)C(c1ccccc1)C(c1ccccc1)N2 (centres undefined)	155 °C
COCc1cc(O)nc(S)n1	220 to 223 °C
C1=CC2OC1c1ccccc12	53 to 58 °C
CC(=O)OC1CC2C(C)(C)CCCC2(C)C2=C1C(=O)C(C(C)C)=C(O)C2=O (centres undefined)	213 °C
O=C(Nc1ccc(Br)cc1Br)C(C(F)(F)F)(C(F)(F)F)C(F)(F)F	228 to 230 °C
CSc1nn(CO)c(=S)s1	72 to 74 °C
O=C(NCc1ccc(S(=O)(=O)Cl)s1)c1ccc(Cl)cc1	138 to 140 °C
O=C(O)Cc1ccc(Cl)cc1C(F)(F)F	89 °C
CC1(C)C2CCC13CS(=O)(=O)N=C3C2 (centres undefined)	227 °C
Cc1nn(C)c(C)c1I	72 to 74 °C
O=c1ccn(C2OC(CO)C(O)C2O)c(=O)[nH]1 (centres undefined)	168 °C
CC(C)(C)P(C(C)(C)C)C(C)(C)C	30 °C
COc1c(F)cc(F)cc1C#N	35 °C
CN1C(=O)CCS(=O)(=O)C1c1ccc(Cl)cc1 (centres undefined)	116 °C
COc1cc(Cl)c(OC)cc1Cl	134 °C
Cc1cc(CCl)nn1C	63 to 66 °C
CCCCCCCCCCCCCCCC(=O)CC	51 °C
O=C(Oc1ccc2ccccc2c1-c1c(OC(=O)c2ccccc2)ccc2ccccc12)c1ccccc1	163 to 166 °C
NCCOP(=O)(O)O	242 °C
CSc1ccc(C(F)(F)F)cc1NN	86 to 88 °C

Compound	melting point
O=C(c1ccc2ccccc2c1)C(O)c1ccccc1 (centres undefined)	152 °C
COC(=O)c1sccc1Oc1ccc(C(F)(F)F)cc1[N+](=O)[O-]	112 to 113 °C
COc1cccc(CNC(=O)c2[nH]c3ccccc3c2CCO)c1	151 °C
O=Cc1ccc2sccc2c1	53 to 54 °C
CN(C)CCc1c[nH]c2ccccc12	46 °C
CCCCCCCCCCCCCCCC(C)=O	48 °C
COc1ccc2c(c1)CCC(C(=O)O)C2C (centres undefined)	133 °C
CCCOC1CCC2C3CCC4=CC(=O)CCC4(C)C3CCC12C (centres undefined)	117 to 119 °C
Cc1cc(C)c(NC(=O)C(C(F)(F)F)C(F)(F)F)c(C)c1	189 °C
CC(=O)OC1CC2C(C)C(=O)C3(C(O)CC4C(C)(C)CCC(OC(C)=O)C4(C)C13)C2O (centres undefined)	246 °C
C(C=C(c1ccccc1)c1ccccc1)=C(c1ccccc1)c1ccccc1	198 °C
CCOC(=O)c1cn2c(n1)sc1ccccc12	133 to 134 °C
Cc1occc1C(=O)O	102 to 105 °C
O=S(=O)(Cl)c1cc(S(=O)(=O)c2ccccc2)cs1	102 °C
[O-][N+](=Nc1cccc(O)c1)c1cccc(O)c1	183 °C
COc1cccc(C=Cc2cc(C=Cc3cccc(OC)c3O)c([N+](=O)[O-])cc2[N+](=O)[O-])c1O	254 °C
O=Cc1ccc(CN2CCOCC2)cc1	53 to 56 °C
N#C/C(=N/Nc1ccccc1)c1nc(-c2ccccc2)cs1	175 °C
CC(C)(C)NCC(O)COc1cc(Cl)ccc1Cl (centres undefined)	82 °C
COc1ccc2c(c1)OC1c3ccc(O)cc3OCC21 (centres undefined)	128 °C
